Experimental data from ChEMBL document CHEMBL3046147, “Synthesis and Herbicidal Activity of 1-Arylalkyl-3-pyrrolin-2-one Derivatives” (J Pestic Sci, 2000).

Tests used:
Oryza sativa [1] = experiment: Phytotoxicity against two-leaf stage Oryza sativa cv. Nihonbare (rice) planted 3 cm depth measured after […]; assay type: organism-based; conditions: in vivo
Oryza sativa [2] = experiment: Phytotoxicity against two-leaf stage Oryza sativa cv. Nihonbare (rice) planted 1 cm depth measured after […]; assay type: organism-based; conditions: in vivo
Sagittaria pygmaea = experiment: Herbicide activity against Sagittaria pygmaea under greenhouse condition compound treated at 0.5 leaf-stage measured after 14 to 20 days; assay type: functional
Echinochloa oryzicola [3] = experiment: Pre-emergence herbicide activity against Echinochloa oryzicola under greenhouse condition measured after 14 to 20 days; assay type: functional
Echinochloa oryzicola [4] = experiment: Herbicide activity against Echinochloa oryzicola under greenhouse condition compound treated at 2 leaf-stage measured after 14 to 20 days; assay type: functional
[5] = tested on: Schoenoplectiella juncoides; experiment: Herbicide activity against Schoenoplectiella juncoides under greenhouse condition compound treated at emergence-stage measured after 14 to 20 days; assay type: functional

SMILES	MTD (Oryza sativa [1]) [g/acre]	MTD (Oryza sativa [2]) [g/acre]	MED (Sagittaria pygmaea) [g/acre]	MED (Echinochloa oryzicola [3]) [g/acre]	MED (Echinochloa oryzicola [4]) [g/acre]	MED [5] [g/acre]
CC1=C(c2ccccc2)C(=O)N(C(C)(C)c2nc3ccccc3n2C)C1	40	80	20	<10	<5	40
CC1=C(c2ccccc2F)C(=O)N(C(C)(C)c2nc3ccccc3s2)C1	10	5	20	0.156	2.5	10
CC1=C(c2ccccc2)C(=O)N(C(C)(C)c2nc3c(C)cccc3s2)C1	20	5	80	2.5	<5	160
CC1=C(c2ccccc2)C(=O)N(C(C)(C)c2nc3ccc(C)cc3s2)C1	20	5	20	10	<5	80
CC1=C(c2ccccc2)C(=O)N(C(C)(C)c2sc3ccccc3[n+]2[O-])C1	80	80	160	<10	<5	160
COc1ccc(C2=C(C)CN(C(C)(C)c3nc4ccccc4s3)C2=O)cc1	40	10	80	20	<5	80
CCC1=C(c2ccccc2)C(=O)N(C(C)(C)c2nc3ccccc3s2)C1	40	20	80	0.313	5	10
CC1=C(c2ccccc2)C(=O)N(C(C)(C)c2nc3cc(C(F)(F)F)ccc3s2)C1	20	20	160	80	<5	80
CC1=C(c2ccccc2)C(=O)N(C(C)(C)c2nc3ccc(Cl)cc3s2)C1	40	20	80	1.25	<5	160
CC1=C(c2ccccc2)C(=O)N(C(C)(C)c2nc(C(C)(C)C)cs2)C1	10	5	80	5	5	80
CC1=C(c2cccc(Cl)c2)C(=O)N(C(C)(C)c2nc3ccccc3s2)C1	10	5	80	10	<5	40
CC1=C(c2ccccc2)C(=O)N(C(C)(C)c2nc3cc(F)ccc3s2)C1	10	1.25	20	1.25	5	40
